Values of other authors as cited in US9937166B2 (INFLAMMATORY RESPONSE RESEARCH, INC., priority 2013, dated 2018).
Like-named read-outs stand apart in the source and are kept apart here.

Assays:
[1] = for Time to reach steady state level: administered orally
ALI/ARDS = details: in vivo
influenza = details: in vivo
[2] = system: IL-4, IL-6, IL-8, ICAM-1, TLR3, NF-kappa B
H1 receptor = H1 receptor (Homo sapiens, UniProt P35367); details: acidic pH, inflamed tissue
[3] = not given; remark: listed apart in the source
[4] = in vivo
[5] = system: histamine induced wheal and flare

Chain of H1 receptor (P35367 whole entry): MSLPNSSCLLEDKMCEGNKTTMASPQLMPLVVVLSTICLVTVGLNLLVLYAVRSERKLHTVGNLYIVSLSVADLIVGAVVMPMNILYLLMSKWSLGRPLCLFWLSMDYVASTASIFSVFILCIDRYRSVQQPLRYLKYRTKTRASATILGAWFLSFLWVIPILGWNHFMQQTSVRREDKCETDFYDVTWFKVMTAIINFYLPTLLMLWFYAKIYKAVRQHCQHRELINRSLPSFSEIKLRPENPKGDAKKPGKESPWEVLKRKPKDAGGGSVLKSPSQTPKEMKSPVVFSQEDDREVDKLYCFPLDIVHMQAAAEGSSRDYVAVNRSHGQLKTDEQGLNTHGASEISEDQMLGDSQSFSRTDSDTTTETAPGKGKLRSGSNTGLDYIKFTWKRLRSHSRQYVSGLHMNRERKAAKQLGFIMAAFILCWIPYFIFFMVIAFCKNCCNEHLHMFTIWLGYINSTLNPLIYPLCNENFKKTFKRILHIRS

## CC(C)(O)c1ccccc1CC[C@@H](SCC1(CC(=O)O)CC1)c1cccc(/C=C/c2ccc3ccc(Cl)cc3n2)c1 [montelukast]
Adult patients for 22 weeks
  Doses without clinically important adverse experiences: up to 200 mg/day
short-term studies, approximately one week
  Doses without clinically important adverse experiences: up to 900 mg/day
[1]; IV 7 mg vs approved 10 mg oral tablet
  Plasma concentration area under the curve profile, IV vs oral tablet: comparable
[1]
  Time to reach steady state level: two
[1]; listed as Montelukast
  Time to reach steady state level: less than two
[1]; in vivo
  Absorption: rapidly absorbed
  Linear pharmacokinetics to dose: ≤ 50 mg
  Time to peak plasma concentration: 3 to 4 h
[1]; standard meal
  Effect of a standard meal on oral bioavailability and C.: not affected

## CCCCC[C@H](O)/C=C/[C@H]1[C@H](O)CC(=O)[C@@H]1CCCCCCC(=O)O [alprostadil]
ALI/ARDS
  Outcome in large trials for ALI/ARDS: failed

## CC(=O)N[C@@H](CS)C(=O)O [N-acetylcysteine]
ALI/ARDS
  Outcome in large trials for ALI/ARDS: failed

## C[C@@H](O)CCCCn1c(=O)c2c(ncn2C)n(C)c1=O [lisofylline]
ALI/ARDS
  Outcome in large trials for ALI/ARDS: failed

## CC(=O)N1CCN(c2ccc(OCC3COC(Cn4ccnc4)(c4ccc(Cl)cc4Cl)O3)cc2)CC1 (centres unmarked) [ketoconazole]
ALI/ARDS
  Outcome in large trials for ALI/ARDS: failed

## O=C1N[C@H](C(=O)O)CS1 [procysteine]
ALI/ARDS
  Outcome in large trials for ALI/ARDS: failed

## CCOC(=O)C1=C[C@@H](OC(CC)CC)[C@H](NC(C)=O)[C@@H](N)C1 [oseltamivir]
influenza
  Influenza related lower respiratory tract complications: did not appear to reduce

## O=C(O)COCCN1CCN([C@H](c2ccccc2)c2ccc(Cl)cc2)CC1 [levocetirizine]
[2]
  Inflammatory mediators IL-4, IL-6, and IL-8: decrease
[2]; in vivo (so in the source)
  ICAM-1, IL-6, IL-8, TLR3 expression and NF-kappa B activation: decrease
H1 receptor
  Enhanced receptor affinity over first generation mepyramine / first generation molecules: up to 5 ×
H1 receptor; listed as Levocetirizine
  Enhanced receptor affinity over first generation mepyramine / first generation molecules: 5 ×
Eosinophil migration
  Eosinophil migration: decrease
[3]; higher doses
  Principal side effect experienced at higher doses: Sedation
[3]; humans
  Doses that can be safely administered: up to 30 mg/day
[4]
  Steady-state level (time to): 40 h
Airway epithelial cells
  Rhinovirus-induced ICAM-1 and cytokine expression and viral replication: inhibits
[5]; histamine induced wheal and flare data
  Potency among the five modern generation antihistamines: most potent
[5]; levocetirizine 5 mg per day vs fexofenadine 180 mg per day
  Effectiveness compared with fexofenadine: more effective
